Reference: patent publication US10071095B2, “1,2,4-triazolo [4,3-A] pyridine derivatives and their use for the treatment of neurological and psychiatric disorders” (JANSSEN PHARMACEUTICALS, INC., priority 2009, dated 2018)
Like-named read-outs stand apart in the source and are kept apart here. Marks after values point to notes of the source that are not given here. One block for each molecule: values may come before it.

Tests used:
REM sleep in rats = assay: Sleep wake electroencephalography (SW-EEG) in rats; type: in vivo
Source text: Sleep Wake Electroencephalography (SW-EEG) in Rats
SW-EEG analyses are a highly sensitive read-out of a compound's central functional activity that may provide additional insight in the potential therapeutic application (i.e. via drug classification fingerprinting). […] Internal efforts have confirmed that this effect is mGlu2 receptor-mediated, i.e. is absent in mGlu2 KO mice. Sleep abnormalities are often associated with CNS disorders; as such, the potential use of mGlu2 modulators could also have benefit in the treatment of CNS disorders in which (REM) sleep aberrations are manifested. More specifically, the combination of a persistent reduction in REM occurrence and an increase in REM latency is one of the key features of the typical SW architecture fingerprint of most clinically active antidepressants.
We investigated the effects of oral administration of compounds according to the invention on SW organization in rats. The mGlu2/3 receptor agonists LY404039 and LY354740 were also evaluated to allow comparison.

[1] = system: memantine-induced 2DG uptake in mouse brain (hippocampus); assay: Reversal of memantine-induced brain activation ([14C]2DG uptake) in mice; type: in vivo; details: for L.A.D. (lowest active dose for significant reduction of 2DG uptake in hippocampus vs memantine response): mice C57BL/6, s.c., memantine 20 mg/kg s.c., p<0.05
Method: Reversal of Memantine-Induced Brain Activation in Mice
NMDA receptor hypofunction is hypothesized to be involved in schizophrenia.
Autoradiographic assessment of radiolabeled [^14C]-2-deoxyglucose ([^14C]2DG) uptake is commonly used to investigate brain activation. In humans, cerebral blood flow is increased in specific brain regions after administration of a subanaesthetic dose of ketamine.
Male mice (C57BL/6, weight 24-28 g, fasted overnight; n=10 animals per group) were treated with vehicle or test compound (s.c.) in randomized order (t=0 min). Memantine (20 mg/kg, s.c.) was injected 30 min later (t=30 min). At t=45 min, [^14C]2DG (0.16 μCi/g) was administered intraperitoneally (i.p.), followed by a 45 min uptake period. Animals were decapitated (t=90 min), plasma glucose levels measured, the brain removed, rapidly frozen and stored at −20° C. until sectioned. Brain sections were exposed together to a precalibrated [^14C]standard on film, which was developed after four days of exposure. Local tissue [^14C]concentration (nCi/mg tissue equivalent—TEQ—) in each region of interest was determined.
Data was analyzed statistically using a two-way ANOVA analysis followed by post-hoc tests (memantine response versus reversal by the compound). The results are shown in table 5 below, expressed as lowest active dose (L.A.D.) required to exert a statistically significant (p<0.05) reduction of 2DG uptake in the hippocampus compared to memantine response.

[2] = system: conditioned avoidance response in male Wiga Wistar rats; assay: Conditioned avoidance response (CAR) test in rats; type: in vivo; details: for ED50: Rattus norvegicus, po, read-out: ED50 (mg/kg) CAR-Inh.
Source text: Conditioned Avoidance Response (CAR) Test
The apparatus consisted of an inner box surrounded by an outer box. The inner box was composed of four walls of transparent, synthetic material (length×width×height: 30×30×30 cm), an open top, and a grid floor made of 15 pairs of iron bars (2 mm diameter; 6 mm inter-bar distance). Odd and even bars were connected with a source of alternative current (1.0 mA; Coulbourn Instruments Solid State Shocker/Distributor), which could be interrupted by a switch. The outer box was composed of the same material (length×width×height: 40×40×36 cm), also with an open top, with a distance of 5 cm between the inner and outer box on all sides. To decrease the amount of environmental stimuli, three walls of the outer box were made non-transparent. The front wall was left transparent to allow the necessary inspection of the animal during the test. The upper edge of the outer and inner box served as a target for the rats on which to jump with fore- and hind-paws, respectively.
Avoidance Conditioning and Selection of Animals
From their arrival in the laboratory on the experimental day, male Wiga Wistar rats (230±30 g) were housed in individual cages provided with bedding material.
Latency to avoidance was recorded. The median avoidance response obtained over the three experimental sessions for each rat were used for further calculations.

[3] = system: PCP-induced hyperlocomotion in male NMRI mice; assay: Phencyclidine (PCP)-induced hyperlocomotion in mice (video tracking); type: in vivo
Method: (§1) Motor Activity (Video Tracking)
(§2) Apparatus and General Procedure
(§3) On the day of experiments, the mice were brought into the procedural room. They were housed individually and allowed to acclimate for at least a half hour prior to testing. Although the studies were conducted during the light cycle (from 8:00 to 16:00 h), the procedure room was only sparsely lit (3 to 30 LUX) to provide better contrast for the video tracking. Local lighting was used for the injection procedures. During each trial, an individual mouse was placed in an open field arena (grey PVC cylinder with a height of 40 cm and a diameter of 22.5 cm). Each arena was placed on an infrared LED (8×8 LEDs)-lit box (white PVC squared box; 40×40 cm^2; height 12.5 cm). Each mouse was placed in the center of the arena and allowed to explore freely for 30 min. After each trial, the arena was cleaned with a wet and subsequently with a dry cleaning cloth. An infrared sensitive tube camera and a white light source (in arena: 4-7 LUX) were mounted to the ceiling above the observation chamber to record and input activity to a computer. Animal behavior was recorded and analyzed using the Noldus Ethovision XT Video Tracking System (Version 3.1; Noldus, Wageningen, The Netherlands). The total distance traveled (cm) was calculated. Data were then exported to data management systems for further analysis and reporting.
Phencyclidine (PCP)-Induced Hyperlocomotion in Mice
Test compound or solvent was administered at a pre-defined time before measurement (standard: 30 min) to male NMRI mice that were challenged with phencyclidine (PCP; 5 mg/kg, s.c.) 30 min before measurement. Activity was measured for a period of 30 min.

[4] = system: d-amphetamine-induced hyperlocomotion in male NMRI mice; assay: d-Amphetamine-induced hyperlocomotion in mice (video tracking); type: in vivo
Method: as §1, §2
as §3, with “An infrared sensitive tube camera and a white light source (in arena: 4-7 LUX) were mounted to the ceiling above the observation chamber to record and input activity to a computer.” left out, “Data were then exported to data management systems for further analysis and reporting.” left out
Test compound or solvent was administered at a pre-defined time before measurement (standard: 30 min) to male NMRI mice that were challenged with d-amphetamine (5 mg/kg, s.c.) 30 min before measurement. Activity was measured for a period of 30 min.

human mGluR2 receptor = target: T1, human mGluR2 receptor (Homo sapiens, UniProt Q14416); assay: [35S]GTPγS binding assay, positive allosteric modulation (GTPγS-PAM) in presence of EC20 glutamate; type: biochemical; details: in presence of glutamate at EC20; average pEC50 if more experiments; ‡ means tested once
T1 construct: expressed in transfected cells; host or cells: CHO cells
Method in brief: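 Membranes from butyrate-stimulated CHO cells expressing human mGluR2 (7 μg protein) preincubated 30 min at 30°C with compound plus ~EC20 glutamate in HEPES pH 7.4, 100 mM NaCl, 3 mM MgCl2, 10 μM GDP, 10 μg/ml saponin. [35S]GTPγS (0.1 nM) incorporation over 30 min at 30°C measured by filtration and scintillation counting.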

[5] = compound administered orally (*); a)/b) = estimated ED50 values
[6] = not marked * (not oral; injection per method); b) = estimated ED50 values (n = 3 per dose)

T1 sequence (Q14416 19-872): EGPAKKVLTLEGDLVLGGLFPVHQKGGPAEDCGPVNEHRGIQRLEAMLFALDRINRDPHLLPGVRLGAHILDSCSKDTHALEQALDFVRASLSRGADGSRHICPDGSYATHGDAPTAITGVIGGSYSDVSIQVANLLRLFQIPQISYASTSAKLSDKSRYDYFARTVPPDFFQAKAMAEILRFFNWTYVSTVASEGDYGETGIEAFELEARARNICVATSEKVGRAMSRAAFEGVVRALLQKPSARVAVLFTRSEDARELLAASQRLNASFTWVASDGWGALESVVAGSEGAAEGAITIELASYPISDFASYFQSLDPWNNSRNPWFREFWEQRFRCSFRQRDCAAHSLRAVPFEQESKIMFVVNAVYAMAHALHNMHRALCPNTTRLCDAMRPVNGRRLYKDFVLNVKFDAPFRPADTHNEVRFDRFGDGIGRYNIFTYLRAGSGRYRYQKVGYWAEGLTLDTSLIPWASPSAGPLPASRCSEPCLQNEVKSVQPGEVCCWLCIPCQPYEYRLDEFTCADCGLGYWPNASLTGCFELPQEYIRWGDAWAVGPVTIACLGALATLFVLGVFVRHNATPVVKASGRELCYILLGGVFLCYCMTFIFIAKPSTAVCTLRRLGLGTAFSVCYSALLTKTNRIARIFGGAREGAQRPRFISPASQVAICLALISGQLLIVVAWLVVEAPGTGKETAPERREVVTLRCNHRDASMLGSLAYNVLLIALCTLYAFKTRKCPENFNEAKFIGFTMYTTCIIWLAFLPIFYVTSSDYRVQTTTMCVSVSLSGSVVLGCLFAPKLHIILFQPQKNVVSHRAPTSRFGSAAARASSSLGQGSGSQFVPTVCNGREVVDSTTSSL

Compound: N[C@@]1(C(=O)O)CC[C@H]2[C@H](C(=O)O)[C@H]21 [LY354740]
lowest active dose, decrease in REM sleep (REM sleep in rats; acute dosing, s.c.): 3 mg/kg | effect of subchronic treatment on REM sleep effect (in words) (REM sleep in rats; once daily dosing for 7 days, 1, 3, 10 mg/kg, s.c.): led to tolerance

Compound: N[C@@]1(C(=O)O)CS(=O)(=O)[C@H]2[C@H](C(=O)O)[C@H]21 [LY404039, reference compound]
effect on REM sleep (in words) (REM sleep in rats; 3 mg/kg, p.o.): affect REM sleep | effect on memantine-induced brain glucose metabolism / 2DG uptake (in words) ([1]; mouse brain, reference drugs): inhibited

Compound: FC(F)(F)c1c(N2CCC(c3ccccc3)CC2)ccn2c(CC3CC3)nnc12 [compound 43, 3-(Cyclopropylmethyl)-7-(4-phenyl-1-piperidinyl)-8-(trifluoromethyl)-1,2,4-triazolo[4,3-a]pyridine]
effect of subchronic treatment on REM sleep effect (in words) (REM sleep in rats; once daily dosing for 7 days, 3, 10 and 30 mg/kg, p.o.): did not diminish the effects | L.A.D. (lowest active dose for significant reduction of 2DG uptake in hippocampus vs memantine response) [1]: ≤2.5 mg/kg, s.c. | inhibition of the conditioned avoidance response in rats (in words) [2]: inhibited | ED50 [2, 5]: 16.3 mg/kg | ED50 [2, 6]: 2.35 mg/kg | ED50 ([3]; Mus musculus, read-out: Mice ED50 (mg/kg) PCP-Inh.): 5.4 mg/kg | inhibition of PCP-induced hyperlocomotion in mice (in words) ([3]; mice): inhibited | ED50 ([4]; Mus musculus, sc, male NMRI mice, s.c., d-amphetamine 5 mg/kg s.c., criterion total distance <5500 counts, read-out: ED50, inhibition of amphetamine-induced hyperlocomotion): 37 mg/kg | activity against d-amphetamine-induced hyperlocomotion in mice (in words) ([4]; mice): active

GTPγS - hR2 PAM pEC50 (human mGluR2 receptor): 6.3
Compound: Fc1ccc(N2CCN(c3ccn4c(CC(F)(F)F)nnc4c3Cl)CC2)c(F)c1 [compound 97]
L.A.D. (lowest active dose for significant reduction of 2DG uptake in hippocampus vs memantine response) [1]: ≤10 mg/kg, s.c. | inhibition of the conditioned avoidance response in rats (in words) [2]: inhibited | ED50 (mg/kg) CAR-Inh. [2, 5]: 32*^b) mg/kg | ED50 (mg/kg) CAR-Inh. [2, 6]: 16^b) mg/kg | inhibition of PCP-induced hyperlocomotion in mice (in words) ([3]; mice): inhibited | Mice ED50 (mg/kg) PCP-Inh., estimated ED50 (footnote a) ([3]; mice, inhibition of PCP-induced hyperlocomotion, estimated ED50 values (n = 3 per dose; 4-fold separation between doses)): 6.3 ^a) mg/kg
